# Measurements published in ChEMBL document CHEMBL4017488, “Glucuronides as Potential Anionic Substrates of Human Cytochrome P450 2C8 (CYP2C8)” (J Med Chem, 2017).
# T1: CYP2C8 (Homo sapiens, UniProt P10632)
# T1 sequence (P10632 whole entry): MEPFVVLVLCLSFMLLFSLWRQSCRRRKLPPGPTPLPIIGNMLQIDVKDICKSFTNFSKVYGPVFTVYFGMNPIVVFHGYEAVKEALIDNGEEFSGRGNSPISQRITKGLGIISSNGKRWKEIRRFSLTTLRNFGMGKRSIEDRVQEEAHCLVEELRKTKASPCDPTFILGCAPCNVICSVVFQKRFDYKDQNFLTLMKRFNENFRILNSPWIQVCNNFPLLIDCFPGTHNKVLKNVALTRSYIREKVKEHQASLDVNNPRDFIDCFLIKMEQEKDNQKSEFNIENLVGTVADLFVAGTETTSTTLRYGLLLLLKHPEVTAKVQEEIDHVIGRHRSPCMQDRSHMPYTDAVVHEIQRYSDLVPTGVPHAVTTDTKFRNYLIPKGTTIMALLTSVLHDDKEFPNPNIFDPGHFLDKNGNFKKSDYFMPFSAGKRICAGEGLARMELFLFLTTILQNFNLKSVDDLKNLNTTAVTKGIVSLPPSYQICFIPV
# T2: Cytochrome P450 2C8 (Homo sapiens, UniProt P10632)
# T2 sequence (P10632 whole entry): T1 sequence (P10632 whole entry)
# T3: CYP1A2 (Homo sapiens, UniProt P05177)
# T3 sequence (P05177 whole entry): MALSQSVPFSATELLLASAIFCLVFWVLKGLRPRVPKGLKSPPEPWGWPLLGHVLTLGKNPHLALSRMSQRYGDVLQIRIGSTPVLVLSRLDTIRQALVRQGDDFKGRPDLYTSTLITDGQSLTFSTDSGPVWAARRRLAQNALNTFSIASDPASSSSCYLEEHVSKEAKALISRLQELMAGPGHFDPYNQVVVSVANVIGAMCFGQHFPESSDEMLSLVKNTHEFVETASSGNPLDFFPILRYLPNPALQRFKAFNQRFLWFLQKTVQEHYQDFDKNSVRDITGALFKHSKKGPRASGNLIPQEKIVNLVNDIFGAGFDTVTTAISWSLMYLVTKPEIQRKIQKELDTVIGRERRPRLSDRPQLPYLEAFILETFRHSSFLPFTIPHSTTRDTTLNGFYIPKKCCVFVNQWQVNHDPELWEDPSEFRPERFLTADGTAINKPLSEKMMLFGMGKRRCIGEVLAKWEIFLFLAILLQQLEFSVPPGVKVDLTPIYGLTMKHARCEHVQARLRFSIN
# T4: Cytochrome P450 1A2 (Homo sapiens, UniProt P05177)
# T4 sequence (P05177 whole entry): T3 sequence (P05177 whole entry)
# B1: Cytochrome P450 2C8 (Homo sapiens) (protein)
# chain: T1 sequence (P10632 whole entry)
# Columns and labels:
# Homo sapiens [1] = assay: In vivo drug metabolism in human assessed as CYP2C9-mediated 4'-hydroxydiclofinac metabolite formation; format: ADME, organism-based
# [2] = In vivo drug metabolism in human assessed as UGT2B7-mediated 4'-hydroxydiclofinac acyl glucuronide level in urine; format: ADME, organism-based
# CYP2C8 [3] = target: T1, CYP2C8; assay: (§1) Inhibition of CYP2C8 in human liver microsomes preincubated for 30 mins followed by substrate addition measured after 2 mins; format: ADME; details: human, liver microsomes
# Cytochrome P450 2C8 [4] = target: T2, Cytochrome P450 2C8; assay: as §1; format: ADME
# [5] = In vivo drug metabolism in human assessed as UGT2B7-mediated gemfibrozil-1-O-beta-glucuronide metabolite levels in urine at 450 mg, po after 24 hrs by HPLC analysis; format: ADME, organism-based
# [6] = In vivo drug metabolism in human assessed as CYP2C8-mediated gemfibrozil-1-O-beta-glucuronide-2'-benzyl alcohol metabolite levels in urine at 450 mg, po after 24 hrs by HPLC analysis; format: ADME, organism-based
# [7] = In vivo drug metabolism in human assessed as CYP2C8-mediated gemfibrozil-1-O-beta-glucuronide-5'-benzyl alcohol metabolite levels in urine at 450 mg, po after 24 hrs by HPLC analysis; format: ADME, organism-based
# Homo sapiens [8] = assay: In vivo inhibition of CYP2C8 in human assessed as reduction in gemfibrozil-1-O-glucuronide metabolite formation in plasma at 30 mg, po administered as single dose measured after 10 hrs by LC-MS/MS analysis
# [9] = In vivo drug metabolism in human assessed as CYP2C8-mediated glucuronide conjugate formation in urine by LC-MS/MS analysis; format: ADME, organism-based
# Cytochrome P450 2C8 [10] = target: T2, Cytochrome P450 2C8; assay: Inhibition of CYP2C8 in human liver microsomes using paclitaxel as substrate after 5 mins; format: ADME
# Cytochrome P450 2C8 [11] = target: T2, Cytochrome P450 2C8; assay: Inhibition of CYP2C8 in human liver microsomes using paclitaxel as substrate preincubated for 2 to 40 mins followed by NADPH-generating system addition measured after 2 mins; format: ADME
# Blood [12] = assay: In vivo drug metabolism in human assessed as UGT-mediated deleobuvir acyl glucuronide metabolite formation in blood at 800 mg,po administered as single dose measured up to 12 hrs; format: ADME, organism-based
# Blood [13] = assay: In vivo drug metabolism in human assessed as 3-(2-(1-(2-(5-bromopyrimidin-2-yl)-3-cyclopentyl-1-methyl-1H-indole-6-carboxamido)cyclobutyl)-1-methyl-1H-benzo[d]imidazol-6-yl)propanoic acid metabolite formation in blood at 800 mg,po administered as single dose measured up to 12 hrs by radiolabled assay; format: ADME, organism-based
# CYP2C8 [14] = target: T1, CYP2C8; assay: (§2) Time dependent inhibition of CYP2C8 in human liver microsomes after 5 mins by LC-MS/MS analysis; format: ADME; details: human, liver microsomes
# Cytochrome P450 2C8 [15] = target: T2, Cytochrome P450 2C8; assay: as §2; format: ADME
# Cytochrome P450 2C8 [16] = target: T2, Cytochrome P450 2C8; assay: Reversible inhibition of CYP2C8 in human liver microsomes after 5 mins by LC-MS/MS analysis; format: ADME
# CYP1A2 = target: T3, CYP1A2; assay: (§3) Inactivation of CYP1A2 in human liver microsomes after 5 mins by LC-MS/MS analysis; format: ADME; details: human, liver microsomes
# Cytochrome P450 1A2 = target: T4, Cytochrome P450 1A2; assay: as §3; format: ADME
# [17] = substrate: C[C@]12CC[C@@H]3c4ccc(O)cc4CC[C@H]3[C@@H]1CC[C@@H]2O[C@@H]1O[C@H](C(=O)O)[C@@H](O)[C@H](O)[C@H]1O; assay: Drug metabolism in human liver microsomes assessed as CYP2C8-mediated glucuronide conjugate formation per nmol of protein after 30 mins by HPLC-MS/MS analysis; format: ADME
molecule,measurement,setting,value
O=C(O)Cc1ccccc1Nc1c(Cl)cccc1Cl [DICLOFENAC],Drug metabolism,Homo sapiens [1],30 %ID
same,Drug metabolism,[2],10 to 20 %ID
O=C(O)[C@H]1O[C@@H](OC(=O)[C@H](c2ccccc2Cl)N2CCc3sccc3C2)[C@H](O)[C@@H](O)[C@@H]1O,kinact at 2 min,CYP2C8 [3],0.000783 s⁻¹
same,Ki,Cytochrome P450 2C8 [4],9.9 µM
Cc1ccc(C)c(OCCCC(C)(C)C(=O)O)c1 [GEMFIBROZIL],Drug metabolism,[5],32 %ID
same,Drug metabolism,[6],20 %ID
same,Drug metabolism,[7],20 %ID
same,inhibition (INH),Homo sapiens [8],50%
CC(C)Cc1ccc(C(C)C(=O)O)cc1 (stereo not given) [IBUPROFEN],Drug metabolism,[9],10 to 15 %ID
Cc1ccc(C)c(OCCCC(C)(C)C(=O)O[C@@H]2O[C@H](C(=O)O)[C@@H](O)[C@H](O)[C@H]2O)c1,IC50,Cytochrome P450 2C8 [10],24 µM
same,Ki,Cytochrome P450 2C8 [11],52 µM
Cn1c(C2(NC(=O)c3ccc4c(C5CCCC5)c(-c5ncc(Br)cn5)n(C)c4c3)CCC2)nc2ccc(/C=C/C(=O)O)cc21 [DELEOBUVIR],Drug metabolism,Blood [12],20 %ID
same,Drug metabolism,Blood [13],15 %ID
Cn1c(C2(NC(=O)c3ccc4c(C5CCCC5)c(-c5ncc(Br)cn5)n(C)c4c3)CCC2)nc2ccc(/C=C/C(=O)O[C@@H]3O[C@H](C(=O)O)[C@@H](O)[C@H](O)[C@H]3O)cc21,kinact at 5 min,CYP2C8 [14],0.000868 s⁻¹
same,Ki,Cytochrome P450 2C8 [15],0.0521 µM
same,Ki,Cytochrome P450 2C8 [16],0.022 µM
same,kinact at 5 min,CYP1A2,0.000733 s⁻¹
same,Ki,Cytochrome P450 1A2,54.6 µM
B1,Km,[17],88 µM
same,Vmax,[17],0.00186 µmol/min
